In patent US9434688B2, “Indole derivatives as selective androgen receptor modulators (SARMS)” (Janssen Pharmaceutica, NV, priority 2004, dated 2016):
pIC50: −log10 of the molar value. Where “and” joins values, the source holds several entries; their conditions need not be identical. Equal entries are not always repeated.

The compounds below were run against T1, androgen receptor (Rattus norvegicus, UniProt P15207) (assay: L929 Androgen Receptor Functional Assay, Adenovirus Transduction). Conditions: L929 agonist testing; @ 8000 nM.
T1 sequence (P15207 1-902): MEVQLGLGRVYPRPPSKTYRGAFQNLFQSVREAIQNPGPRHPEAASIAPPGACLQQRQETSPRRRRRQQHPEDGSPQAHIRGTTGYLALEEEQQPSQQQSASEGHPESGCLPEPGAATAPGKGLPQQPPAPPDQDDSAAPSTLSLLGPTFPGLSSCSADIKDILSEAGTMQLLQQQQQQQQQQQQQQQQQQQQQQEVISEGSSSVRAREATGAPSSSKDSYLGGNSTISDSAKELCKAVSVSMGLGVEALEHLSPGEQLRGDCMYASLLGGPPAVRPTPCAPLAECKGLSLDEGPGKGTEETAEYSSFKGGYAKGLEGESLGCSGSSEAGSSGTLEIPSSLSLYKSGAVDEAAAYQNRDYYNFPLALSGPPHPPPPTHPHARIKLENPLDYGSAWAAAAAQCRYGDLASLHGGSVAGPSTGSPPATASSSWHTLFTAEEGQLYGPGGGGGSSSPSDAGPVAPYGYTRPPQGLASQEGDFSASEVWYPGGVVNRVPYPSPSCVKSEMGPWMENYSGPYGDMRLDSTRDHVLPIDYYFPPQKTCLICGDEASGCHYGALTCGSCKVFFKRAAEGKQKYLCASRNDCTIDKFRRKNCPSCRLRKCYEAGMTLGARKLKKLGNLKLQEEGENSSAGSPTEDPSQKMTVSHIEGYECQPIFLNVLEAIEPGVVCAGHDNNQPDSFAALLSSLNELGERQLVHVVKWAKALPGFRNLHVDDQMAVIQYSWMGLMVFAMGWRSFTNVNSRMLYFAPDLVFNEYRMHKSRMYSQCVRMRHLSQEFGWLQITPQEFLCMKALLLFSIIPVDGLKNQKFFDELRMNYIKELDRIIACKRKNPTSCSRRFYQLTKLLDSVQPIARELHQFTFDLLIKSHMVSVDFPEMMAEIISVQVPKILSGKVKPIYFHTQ
Type: cell-based
Set-up: expressed in transfected cells; host or cells: L929 cells transduced with adenovirus AdEasy+rAR
Method: L929 cells were plated in 96-well plates at 20,000 cells per well, in DMEM/F12 (GIBCO) containing 10% (v/v) charcoal-treated fetal bovine serum (Hyclone) and lacking phenol red. The plates were then incubated overnight at 37° C. in 5% (v/v) humidified CO2.
Test compound dilutions were prepared in 100% (v/v) DMSO, if necessary. Each dilution was made to 1250× the final desired assay concentration.
First, 2 mL of DMEM/F12 lacking phenol red was pipetted into the wells of a 2-mL 96-well assay block. Next, 4 μL of the 1250× test compound dilutions were pipetted into each well of the assay block. The mixtures within the well were then carefully mixed by pipette.
In a 15 mL or 50 mL sterile centrifuge tube, a 2.5 nM (2.5×) dilution of R1881 (methyl-trienolone) in DMEM/F12 lacking phenol red was prepared.
In a second 15 mL or 50 mL centrifuge tube a solution containing an equal volume of DMEM to the first and an equal volume of 100% (v/v) DMSO to the volume of R1881 used in the first tube was prepared.
In a 15 mL or 50 mL sterile centrifuge tube, a dilution in DMEM/F12 of the adenovirus AdEasy+rAR at an moi of 1:500 per well was prepared.
The medium was removed from the 96-well plates by inversion and dried, inverted, very briefly. As soon as possible after medium removal, 40 μL of the diluted unlabeled test compound was added to each well, in duplicate. To each well designated for antagonist testing was added 40 μL of the 2.5 nM R1881 dilution to the wells for antagonist testing. To each well designated for agonist testing was added 40 μL of the DMSO dilution. Then 20 μL of the diluted adenovirus were added to all wells. The plates were incubated for 48 hours at 37° C. in 5% (v/v) humidified CO2.
To each well was added 100 μL of Steady-Glo luciferase assay substrate (Promega) and the plates were placed on a rotary shaker for 1 min. The plates were then incubated at room temperature in the dark for one hour. The contents of each well were then transferred to a white microtiter plate (Packard) and read on a Luminoskan Ascent (Thermo Lab Systems).
L929 AR percent activity was determined by testing dilutions of the test compound using a concentration of 3000 nM unless otherwise noted. L929 percent inhibition was determined by testing dilutions of the test compound using a concentration of 3000 nM. […] Luciferase activity per well were measured and EC50s and IC50s determined by linear regression.

For CCSCC(C)(O)c1cc2cc(C#N)c(C(F)(F)F)cc2[nH]1 (single isomer, unassigned) [Compound #217, 2-(2-Ethylsulfanyl-1-hydroxy-1-methyl-ethyl)-6-trifluoromethyl-1H-indole-5-carbonitrile], the “% Activity” value was 0 @ 8000 nM %.

Same assay, conditions: L929 agonist testing; concentration of 3000 nM

Point of comparison: CC(O)(CSCC(F)(F)F)c1cc2cc(C#N)c(C(F)(F)F)cc2[nH]1 (racemic) [compound 211], “% Activity” value −1%. Against it:
- CC[S+]([O-])CC(O)c1cc2cc([N+](=O)[O-])c(C(F)(F)F)cc2[nH]1 (mixture of isomers) [compound 180] — higher, 2%
- CSCCC(C)(O)c1cc2cc(Cl)c(C(F)(F)F)cc2[nH]1 (racemic) [compound 51] — higher, 2%
- CN(C)c1ccc(S(=O)(=O)CC(C)(O)c2cc3cc(Cl)c(C(F)(F)F)cc3[nH]2)cc1 (racemic) [compound 126] — lower, −5%
- CC(O)(CS(=O)(=O)Cc1ccccc1)c1cc2cc([N+](=O)[O-])c(C(F)(F)F)cc2[nH]1 (racemic) [compound 162] — higher, 2%
- CCCSCC(C)(O)c1cc2cc(Cl)c(C(F)(F)F)cc2[nH]1 (racemic) [compound 196] — higher, 13%
- CC(O)(CSCc1ccco1)c1cc2cc([N+](=O)[O-])c(C(F)(F)F)cc2[nH]1 (racemic) [compound 198] — higher, 7%
- CC(O)(CS(=O)(=O)CC(F)(F)F)c1cc2cc([N+](=O)[O-])c(C(F)(F)F)cc2[nH]1 (racemic) [compound 208] — higher, 1%
- CCS(=O)(=O)CC(C)(O)c1cc2cc(C#N)c(C(F)(F)F)cc2n1C (racemic) [compound 240] — higher, 0%
- CC(O)(Sc1ccc(N)cc1)c1cc2cc(Cl)c(C(F)(F)F)cc2[nH]1 (racemic) [compound 265] — the same, −1%
- CC(O)(Sc1ccc(N)cc1)c1cc2cc([N+](=O)[O-])c(C(F)(F)F)cc2[nH]1 (racemic) [compound 266] — lower, −4%
- CC(C)SC(C)(CO)c1cc2cc([N+](=O)[O-])c(C(F)(F)F)cc2[nH]1 (racemic) [compound 268] — higher, 9%
- CSCCC(C)(O)c1cc2cc([N+](=O)[O-])c(C(F)(F)F)cc2[nH]1 (centres unmarked) [compound 47] — higher, 2%
- COc1ccc(S(=O)(=O)CC(C)(O)c2cc3cc(Cl)c(C(F)(F)F)cc3n2S(C)(=O)=O)cc1 (centres unmarked) [compound 128] — lower, −4%
- CC(O)(CSc1ccc(C(=O)O)cc1)c1cc2cc(Cl)c(C(F)(F)F)cc2n1S(C)(=O)=O (centres unmarked) [compound 132] — lower, −5%
- CC(O)(CSc1ccc(C(=O)O)cc1)c1cc2cc(Cl)c(C(F)(F)F)cc2[nH]1 (centres unmarked) [compound 133] — lower, −4%
- CC(O)(CS(C)(=O)=O)c1cc2cc(Cl)c(C(F)(F)F)cc2n1S(C)(=O)=O (centres unmarked) [compound 137] — higher, 0%
- CC(C)CSCC(C)(O)c1cc2cc([N+](=O)[O-])c(C(F)(F)F)cc2[nH]1 (centres unmarked) [compound 170] — higher, 2%

Same assay, conditions: L929 agonist testing; concentration of 3000 nM; 3 µM

For CSC(C)(O)c1cc2cc([N+](=O)[O-])c(C(F)(F)F)cc2[nH]1 (racemic) [compound 267], the “% Activity” value was −5% and 0%.

Same assay, conditions: L929 antagonist testing with R1881

CC[S+]([O-])CC(C)(O)c1[nH]c2cc(C(F)(F)F)c(C#N)cc2c1C (centres unmarked) [compound 252] was tested, and the pIC50 was 5.51.

These compounds were tested against T1, androgen receptor (assay: Androgen Receptor Binding Using Rat Ventral Prostate Cytosol). Conditions: Rat Cytosol; Concentration 1000 nM.
Set-up: from tissue; host or cells: ventral prostate cytosol of castrated male Sprague Dawley or Wistar rats
Method: Rat Prostate Cytosol Preparation:
Male Sprague Dawley or Wistar rats (Charles River, 200-300 g) were used for each preparation. The day before preparing the cytosol, the rats were castrated using standard surgical procedures.
The rats were euthanized by carbon dioxide asphyxiation. The rat prostates were quickly removed and placed on ice in pre-chilled, pre-weighed 50 mL plastic tubes. No more than five prostates were placed into one tube. The tubes were then weighed and the prostate tissue wet weights calculated.
To the chilled prostate tissue was then added […] of chilled homogenization buffer. The homogenization buffer was freshly prepared by mixing 10 mM Tris.HCl, pH 7.4, 1 mM sodium molybdate, 1.5 mM EDTA, 1 mM dithiothreitol, 10% (v/v) glycerol and 1% protease inhibitor cocktail (Sigma P 8340).
The prostate tissue was homogenized in a cold room using a pre-chilled Polytron PT3000 homogenizer (Brinkmann). Homogenization was performed at a speed setting of 20, three times for 10 sec bursts. The tubes containing the prostate tissue was kept on ice while homogenizing. The homogenate was allowed to rest on ice for 20 sec between bursts.
The homogenate was then placed into pre-chilled 3 mL polycarbonate ultracentrifuge tubes and centrifuged in the TLA-100 rotor of a TL-100 ultracentrifuge for 12 min at 100,000 rpm at 4° C. The resulting supernatant was stored in 1 mL aliquots at −80° C. until needed.
Binding to the androgen receptor was determined according to the protocol described in Example 86 using the above prepared rat cytosol.
% Inhibition was determined by testing dilutions of the test compound (usually duplicates of 10 μM) in the binding assay. Counts per well were measured and percents of inhibition determined. […] Counts per well were measured and IC50s determined by linear regression.

Point of comparison: CC(O)(Sc1ccc(Cl)cc1)c1cc2cc(C#N)c(C(F)(F)F)cc2[nH]1 (racemic) [compound 261], “% Inhibition” value 14.05%. Against it:
- CC(O)(Sc1ccc(Cl)c(Cl)c1)c1cc2cc([N+](=O)[O-])c(C(F)(F)F)cc2[nH]1 (racemic) [compound 254] — higher, 41%
- CC(O)(c1cc2cc([N+](=O)[O-])c(C(F)(F)F)cc2[nH]1)S(=O)(=O)c1ccc(Cl)c(Cl)c1 (racemic) [compound 255] — higher, 26%
- CC(O)(Sc1ccccc1)c1cc2cc([N+](=O)[O-])c(C(F)(F)F)cc2[nH]1 (racemic) [compound 258] — higher, 35.4%
- CC(O)(c1cc2cc(C#N)c(C(F)(F)F)cc2[nH]1)S(=O)(=O)c1ccc(Cl)cc1 (racemic) [compound 262] — lower, −8.4%
- CS(=O)(=O)n1c(C2(O)CCN(C(=O)c3ccc(Cl)cc3)CC2)cc2cc(Cl)c(C(F)(F)F)cc21 [compound 24] — lower, 2%

Same assay, conditions: Rat Cytosol; Concentration 3000 nM

Point of comparison: CN(C)c1ccc(S(=O)(=O)CC(C)(O)c2cc3cc(Cl)c(C(F)(F)F)cc3[nH]2)cc1 (racemic) [compound 126], “% Inhibition” value −30%. Against it:
- CC(O)(CS(=O)(=O)Cc1ccccc1)c1cc2cc([N+](=O)[O-])c(C(F)(F)F)cc2[nH]1 (racemic) [compound 162] — higher, 0.69%
- CC(O)(Sc1ccc(N)cc1)c1cc2cc(Cl)c(C(F)(F)F)cc2[nH]1 (racemic) [compound 265] — higher, 93.5%
- CC(O)(Sc1ccc(N)cc1)c1cc2cc([N+](=O)[O-])c(C(F)(F)F)cc2[nH]1 (racemic) [compound 266] — higher, 12.4%
- CC(C)SC(C)(CO)c1cc2cc([N+](=O)[O-])c(C(F)(F)F)cc2[nH]1 (racemic) [compound 268] — higher, −3.3%
